The source of these data is BindingDB's records for doi:10.1021/jm9600095 (Institut De Chimie Des Substances Naturelles Cnrs, 1997).

The nature of this test: Reverse transcriptase activity was measured in the culture supernatant, concentration that reduces by 50% the HIV produced in the supernatant.
What is called EC50 is the midpoint of the concentration-response curve. Higher therefore signals a need for much substance. Molecule `CCOC(Cn1c(=O)c(C)cn(C2CC(N=[N+]=[N-])C(CO)O2)c1=O)OCC` (stereo not given) [1-(4-Azido-5-hydroxymethyl-tetrahydro-furan-2-yl)-3-(2,2-diethoxy-ethyl)-5-methyl-1H-pyrimidine-2,4-dione] showed an EC50 of 1500 nM.

`Cc1cn(C2CC(N=[N+]=[N-])C(CO)O2)c(=O)n(CC2COC(C)(C)O2)c1=O` (stereo not given) [1-(4-Azido-5-hydroxymethyl-tetrahydro-furan-2-yl)-3-(2,2-dimethyl-[1,3]dioxolan-4-ylmethyl)-5-methyl-1H-pyrimidine-2,4-dione] gave a half-maximal effective concentration (EC50) of 13000 nM.

Molecule `Cc1cn(C2CC(N=[N+]=[N-])C(CO)O2)c(=O)n(CCO)c1=O` (stereo not given) [1-(4-Azido-5-hydroxymethyl-tetrahydro-furan-2-yl)-3-(2-hydroxy-ethyl)-5-methyl-1H-pyrimidine-2,4-dione] came in with an EC50 of 90 nM.

`COCCOCn1c(=O)c(C)cn(C2CC(N=[N+]=[N-])C(CO)O2)c1=O` (stereo not given) [1-(4-Azido-5-hydroxymethyl-tetrahydro-furan-2-yl)-3-(2-methoxy-ethoxymethyl)-5-methyl-1H-pyrimidine-2,4-dione] had an EC50 of 140000 nM. Against the preceding molecule, the EC50 is about 1600-fold higher.

`Cc1cn(C2CC(N=[N+]=[N-])C(CO)O2)c(=O)n(CCCO)c1=O` (stereo not given) [1-(4-Azido-5-hydroxymethyl-tetrahydro-furan-2-yl)-3-(3-hydroxy-propyl)-5-methyl-1H-pyrimidine-2,4-dione] registered an EC50 of 120 nM.

`Cc1cn(C2CC(N=[N+]=[N-])C(CO)O2)c(=O)n(CC2CC(CO)=NO2)c1=O` (stereo not given) [1-(4-Azido-5-hydroxymethyl-tetrahydro-furan-2-yl)-3-(3-hydroxymethyl-4,5-dihydro-isoxazol-5-ylmethyl)-5-methyl-1H-pyrimidine-2,4-dione] registered a half-maximal effective concentration (EC50) of 1300 nM. Against the preceding molecule, the EC50 is about 11-fold higher.

The molecule `Cc1cn(C2CC(N=[N+]=[N-])C(CO)O2)c(=O)n(CCCCCCO)c1=O` (stereo not given) [1-(4-Azido-5-hydroxymethyl-tetrahydro-furan-2-yl)-3-(6-hydroxy-hexyl)-5-methyl-1H-pyrimidine-2,4-dione] gave an EC50 of 1200 nM.

Turning to `COc1nc(=O)n(CCn2c(=O)c(C)cn(C3CC(N=[N+]=[N-])C(CO)O3)c2=O)cc1C` (stereo not given) [1-(4-Azido-5-hydroxymethyl-tetrahydro-furan-2-yl)-3-[2-(4-methoxy-5-methyl-2-oxo-2H-pyrimidin-1-yl)-ethyl]-5-methyl-1H-pyrimidine-2,4-dione], the EC50 was over 29000 nM.

As for `Cc1cn(C2CC(n3c(=O)c(C)cn(C4CC(N=[N+]=[N-])C(CO)O4)c3=O)C(CO)O2)c(=O)[nH]c1=O` (stereo not given) [1-(4-Azido-5-hydroxymethyl-tetrahydro-furan-2-yl)-3-[2-hydroxymethyl-5-(5-methyl-2,4-dioxo-3,4-dihydro-2H-pyrimidin-1-yl)-tetrahydro-furan-3-yl]-5-methyl-1H-pyrimidine-2,4-dione], the EC50 was determined as 100 nM.

Molecule `Cc1cn(C2CC(N=[N+]=[N-])C(CO)O2)c(=O)n(CCn2c(=O)c(C)cn(C3CC(N=[N+]=[N-])C(CO)O3)c2=O)c1=O` (stereo not given) [1-(4-azido-5-hydroxymethyltetrahydro-2-furanyl)-3-{2-[1-(4-azido-5-hydroxymethyltetrahydro-2-furanyl)-5-methyl-2,4-dioxo-1,2,3,4-tetrahydro-3-pyrimidinyl]ethyl}-5-methyl-1,2,3,4-tetrahydro-2,4-pyrimidinedione] had an EC50 of 1400 nM.

The molecule `Cc1cn(C2CC(N=[N+]=[N-])C(CO)O2)c(=O)n(CCN=[N+]=[N-])c1=O` (stereo not given) [3-(2-Azido-ethyl)-1-(4-azido-5-hydroxymethyl-tetrahydro-furan-2-yl)-5-methyl-1H-pyrimidine-2,4-dione] yielded an EC50 of 1500 nM.

In turn, `C=CCn1c(=O)c(C)cn(C2CC(N=[N+]=[N-])C(CO)O2)c1=O` (stereo not given) [3-Allyl-1-(4-azido-5-hydroxymethyl-tetrahydro-furan-2-yl)-5-methyl-1H-pyrimidine-2,4-dione] displayed an EC50 of 65000 nM. This EC50 lies about 43-fold higher than the previous one.

Molecule `Cc1cn(C2CC(N=[N+]=[N-])C(CO)O2)c(=O)n(N)c1=O` (stereo not given) [3-Amino-1-(4-azido-5-hydroxymethyl-tetrahydro-furan-2-yl)-5-methyl-1H-pyrimidine-2,4-dione] came in with an EC50 of 500 nM. This EC50 is about 130-fold lower than that of the molecule before.

The molecule `CCOC(=O)Cn1c(=O)c(C)cn(C2CC(N=[N+]=[N-])C(CO)O2)c1=O` (stereo not given) [[3-(4-Azido-5-hydroxymethyl-tetrahydro-furan-2-yl)-5-methyl-2,6-dioxo-3,6-dihydro-2H-pyrimidin-1-yl]-acetic acid ethyl ester] showed an EC50 of 14000 nM.

`CCOP(=O)(Cn1c(=O)c(C)cn(C2CC(N=[N+]=[N-])C(CO)O2)c1=O)OCC` (stereo not given) [[3-(4-Azido-5-hydroxymethyl-tetrahydro-furan-2-yl)-5-methyl-2,6-dioxo-3,6-dihydro-2H-pyrimidin-1-ylmethyl]-phosphonic acid diethyl ester] returned an EC50 of 4700 nM.
